B1: Protein G: Protein G, binds antibody through the Fc region; used as column (protein)
chain: TYKLILNGKTLKGETTTEAVDAATAEKVFKQYANDNGVDGEWTYDDATKTFTVTEKPEVIDASELTPAVTTYKLVINGKTLKGETTTKAVDAETAEKAFKQYANDNGVDGVWTYDDATKTFTVTE

Tests used:
[1] = test system: NTP3-RGG coated microtiter plate; assay: Microtiter plate assay: inhibition of conjugate binding to Harlil peptide coated plate (Example 5); details: monomer (unconjugated) peptide; peroxidase conjugated rabbit IgG; FIG. 2
Protocol: Preparation of Microtiter Plate: The Harlil peptide/immunoglobulin complex NTP3-RGG, in a ratio of 30:1 and prepared as in Example 4, was coated on an Immulon 4 microtiter plate (Dynex, Chantilly, Va.) at a concentration of 0.5 μg/well.
Standards: Recombinant NTP in TBS (described in de la Monte et al., J. of Neuropath. Exp. Neurol., 55:1038-1050 (1996)). 0.01% azide (Nymox Pharm. Corp., Lot 4-7-98), was serially diluted into TBS. 100 μl of each dilution was incubated at pH 3.5 for one hour. The dilutions were then washed for fifteen minutes in TBS, 0.1% albumin, and 0.05% Tween 80. This was followed by 3 washes in TBS and 0.05% Tween 80. Microtiter Plate Assay: 100 μl of 1:8000 dilution of peroxidase conjugated rabbit IgG (Jackson Immunoresearch, West Grove, Pa.) was then added and allowed to react for 30 minutes. The microtiter plate was washed twice with TBS and 0.05% Tween 80, followed by the addition of 150 μl of […] (TMB) (Serex Inc., Maywood, N.J.). The mixture was then incubated for 10 min. and stopped with 50 μl of 2 N HCl. Absorbance was read in a SLT 340 ATTC spectrophotometer.

NTP [2] = assay: Affinity purification of NTP from AD patient urine on NTP-3 agarose column, activity by 7C Gold strip (Example 2); type: binding, human; details: pH 2 eluate, gel bands assayed with 7C Gold, activity only in 35-45 kD band
Chain of NTP (as listed by the source): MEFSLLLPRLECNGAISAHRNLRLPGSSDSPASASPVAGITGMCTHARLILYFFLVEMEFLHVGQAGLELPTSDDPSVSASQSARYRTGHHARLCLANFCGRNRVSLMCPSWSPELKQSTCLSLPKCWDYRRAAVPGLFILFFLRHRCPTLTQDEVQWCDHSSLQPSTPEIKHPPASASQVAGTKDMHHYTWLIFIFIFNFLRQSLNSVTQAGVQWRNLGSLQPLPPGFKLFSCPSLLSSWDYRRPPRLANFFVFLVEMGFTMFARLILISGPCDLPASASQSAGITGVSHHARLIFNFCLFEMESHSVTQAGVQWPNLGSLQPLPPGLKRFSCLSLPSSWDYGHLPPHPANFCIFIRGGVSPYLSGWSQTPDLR
Protocol: Preparation of the Urine Sample Containing NTP for Testing: The biological source of NTP used was the urine of a patient (BOU1) diagnosed with AD. Before application to the column material, the biological sample was processed according to the following protocol for processing of urine for AD testing: • 1. The urine was tested with an Ames Multistix™ (Bayer, Ind.). […] The urine was centrifuged at 3000×g for 15 minutes to remove cellular debris. • 3. The urine was filtered using a syringe through a 0.22 μm cellulose acetate filter, and the filtrate was brought to 0.05% azide. • 4. The resultant aliquot was placed in the top reservoir of an Amicon Centricon® YM-10 Millipore, and centrifuged at 3000×g for one hour. • 5. […] Protein Concentration: The protein concentration in the eluate was 108 μg, as determined by Coomassie Blue staining (BioRad, Hercules, Calif.). […] Protein concentration was 145 μg, as determined by Bicinchoninic Acid Kit (Cat. # 23223, BioRad). Absorbance corrected for the buffer at 280 nm was 390, indicating 390 μg of protein. The larger protein amount obtained with absorbance measurement is likely a result of the presence of a large amount of aromatic amino acids in NTP, which can cause overestimation of protein using this measurement technique. […]

NTP [3] = assay: NTP immunoreactivity of Harlil peptides conjugated to rabbit IgG (Example 1); type: binding; details: peptides conjugated to maleimide activated Rabbit IgG
Excerpt: The following Harlil sequences were synthesized (Synpep, Dublin Calif.) and conjugated to maleimide activated Rabbit IgG (Jackson Immunoresearch, West Grove Pa.) and assessed for their NTP immunoreactivity. […] (SEQ ID NOS 4-11, respectively, in order of appearance)
Conjugation to carrier proteins was through a cysteine. Thus, peptides NTP-1 and NTP-2 produced mixed conjugate results because there is more than one cysteine residue. Therefore, for peptides NTP-5 and NTP-6, the secondary cysteine was blocked with ACM.

rabbit IgG = assay: Precipitation of rabbit immunoglobulin by Harlil peptide (Example 3); details: start 3.4 mg RGG + 1 mg NTP-3, pH 7, dialyzed overnight
Protocol: The purpose of this example was to show the self-aggregation ability of a Harlil peptide. The Harlil peptide NTP-3 forms disulfide bonds (because of the cysteine residue) and dimerizes at neutral pH. Since the dimerized peptide can bind two immunoglobulins, it can cause precipitation.
1 mg of the Harlil peptide NTP-3 in 1 mL of dimethylsulfoxide (DMSO) was added to 3.4 mg of rabbit IgG (Jackson Immunoresearch, West Grove, Pa.) at pH 7. The mixture was allowed to dialyze over night, and a clear white precipitate was observed the next morning. The precipitate was removed by centrifugation and the protein concentration of the supernatant was determined by absorbance at 280 nm using a Perkin Elmer spectrophotometer model Lambda 3B. Precipitation of immunoglobulin is prevented at a low pH, e.g., pH of 3.5 or less 3.5.

NTP [4] = assay: Protein G column pass-through of NTP positive and negative samples (Example 7); type: binding; details: NTP positive and negative samples passed through Protein G column; NTP not significantly reduced
Excerpt: Protein G binds antibody through the Fc region. […] Specifically, since Harlil peptides recognize Harlil peptides, Harlil peptides recognize the Fc region of antibody, and Protein G recognizes the Fc region of antibody, this experiment determined whether Protein G recognizes NTP.
Both an NTP positive and an NTP negative sample were passed through a Protein G column.

| Molecule | inhibition of conjugate binding to the plate [1] | binding of NTP by NTP-3 affinity column (NTP [2]) | NTP immunoreactivity (NTP [3]) | % Protein Precipitated (rabbit IgG) | binding of Protein G to NTP (NTP [4]) |
| --- | --- | --- | --- | --- | --- |
| C A R Y R T G H H A R L M (CARYRTGHHARLM) [NTP-3] | inhibits the binding of conjugate to the plate | selectively bound the NTP protein | good reactivity | 39% | – |
| B1 | – | – | – | – | does not bind to NTP |
